Key:
[1] = tested on: Akkermansia muciniphila; settings: articles reported so far; mice; cited from earlier work
[2] = in vivo; cited from earlier work
[3] = Astaxanthin concentration in human blood (HPLC); assay type: in vivo; settings: 1 to 60 mg of astaxanthin per day
Protocol: Next, an astaxanthin concentration in human blood was investigated.
In this context, a blood astaxanthin concentration means an astaxanthin concentration in blood serum or blood plasma.
A blood astaxanthin concentration was measured by HPLC.
Five hundred microliters of 50 μg/ml butylhydroxytoluene in ethanol, 100 μl of 100 ng/ml internal standard (ethyl 8′-apo-beta-caroten-8′-oate, Carote Nature, 1010) in acetone, and 500 μl of distilled water were added to 100 μl of the obtained blood serum or blood plasma sample, and the mixture was stirred vigorously for 15 seconds by a vortex mixer.
Furthermore, 5 ml of hexane was added to the blood serum or blood plasma, and subsequently the mixture was stirred vigorously for 15 seconds by the vortex mixer three times and centrifuged at 3500 rpm for 10 minutes.
Four milliliters of the supernatant after centrifugation was collected and filtrated through a membrane filter with a mesh size of 0.45 μm. […]
In parallel, a standard solution was prepared by adding 1 ml of 10 μg/ml internal standard (ethyl 8′-apo-beta-caroten-8′-oate) in acetone to 100 ml of 100 ng/ml astaxanthin (astaxanthin, ALEXIS BIOCHEMICALS, 460-031-M250) in acetone, and was also subjected to reverse-phase HPLC. The blood astaxanthin concentration was calculated based on the peak area ratio of the above-mentioned two solutions obtained by HPLC. […]

[4] = Body weight of a rodent; assay type: in vivo; settings: diet containing 0.02% astaxanthin vs normal diet; 24-day-old Wistar rats; PND72,76
Source text: Twenty four-day-old Wistar rats (rodents) were used to compare the body weights of a group fed with a diet containing 0.02% astaxanthin (an Asx group) and the body weights of a group fed with a normal diet (a control group).

[5] = tested on: bacteria of the genus Akkermansia (Akkermansia muciniphila); assay: Intestinal bacterial flora in cecum contents, 16S rRNA sequencing: Akkermansia; assay type: in vivo; settings: diet containing 0.02% astaxanthin for four weeks vs normal diet, 6-week-old Wistar rats
Source text: Thus, as detailed below, 6-week-old Wistar rats (rodents) were used to compare the intestinal bacterial floras of a group fed with an astaxanthin-containing diet for four weeks and a group fed with a normal diet for four weeks. […] Six-week-old Wistar rats (rodents) were used to compare the intestinal bacterial flora of a group fed with a diet containing 0.02% astaxanthin (an Asx group) and the intestinal bacterial flora of a group fed with a normal diet (a control group). Saline or corticotropin-releasing hormone (CRH) was intravenously administered to the rats after feeding each group with each corresponding diet for four weeks. Three hours after administration, the rats were sacrificed and the intestinal bacterial floras in the cecum contents of each group were analyzed and compared. […] The analysis method included extracting DNA in the cecum contents, amplifying the V3-V4 region in a 16SrRNA gene, and performing sequencing.

[6] = tested on: Lactobacillus; assay: Intestinal bacterial flora in cecum contents, 16S rRNA sequencing: Lactobacillus; assay type: in vivo, Wistar rats; settings: diet containing 0.02% astaxanthin for four weeks, control group 10.9%
Source text: (§1) Six-week-old Wistar rats (rodents) were used to compare the intestinal bacterial flora of a group fed with a diet containing 0.02% astaxanthin (an Asx group) and the intestinal bacterial flora of a group fed with a normal diet (a control group).
(§2) Saline or corticotropin-releasing hormone (CRH) was intravenously administered to the rats after feeding each group with each corresponding diet for four weeks.
(§3) Three hours after administration, the rats were sacrificed and the intestinal bacterial floras in the cecum contents of each group were analyzed and compared. The result is shown in the graph of FIG. 1.
(§4) The analysis method included extracting DNA in the cecum contents, amplifying the V3-V4 region in a 16SrRNA gene, and performing sequencing.

[7] = tested on: intestinal peristaltic movement induced by CRH; assay: Intestinal peristaltic movement induced by CRH administration; assay type: in vivo, Wistar rats; settings: diet containing 0.02% astaxanthin for four weeks; CRH intravenously
Source text: as §1, §2
Furthermore, enhancement of intestinal peristaltic movement induced by administration of CRH was reduced in the Asx group.

[8] = Change in astaxanthin concentration in human blood on long-term ingestion; assay type: in vivo; settings: 12 mg/day astaxanthin in free form (two capsules of Haematococcus alga extract) for 42 days
Protocol: Next, a test on humans was performed to monitor how an astaxanthin concentration in blood (in blood plasma) changed when astaxanthin was ingested for a long period. A study was performed as follows:
Ten healthy Japanese males and females aged 20 years or older and younger than 50 years
The subjects ingested two capsules per day (equivalent to 12 mg/day astaxanthin in free form) together with water 30 minutes after breakfast for 42 days, with one capsule containing 60 mg of Haematococcus alga extract (equivalent to 6 mg of astaxanthin in free form) and 270 mg of edible oil and fat.
Blood collection was performed 1, 6, 13, 20, 27, 34, and 42 days after the first ingestion of the capsules to obtain blood plasma. The blood astaxanthin concentration was measured by the above-mentioned analytical method (HPLC).

[9] = tested on: Clostridia; assay: Intestinal bacterial flora in cecum contents, 16S rRNA sequencing: Clostridia; assay type: in vivo, Wistar rats; settings: diet containing 0.02% astaxanthin for four weeks, control group 58.2%
Source text: as §1, §2, §3, §4

SMILES	effect on Akkermansia muciniphila population [1]	absorption percentage in the intestine [2]	blood astaxanthin concentration (serum or plasma), range [3]	increase in body weight [4]	number of bacteria of the genus Akkermansia in the Asx group relative to the control group [5]	proportion of Lactobacillus in the intestinal bacterial flora of the Asx group [6] [%]	enhancement of intestinal peristaltic movement induced by administration of CRH [7]	astaxanthin concentration in human blood plasma at plateau [8]	time after beginning of ingestion at which blood plasma concentration started to plateau [8]	proportion of Clostridia in the intestinal bacterial flora of the Asx group [9] [%]
COc1cc(CNC(=O)CCCC/C=C/C(C)C)ccc1O [Capsaicin]	effect of increasing Akkermansia muciniphila	–	–	–	–	–	–	–	–	–
CC1=C(/C=C/C(C)=C/C=C/C(C)=C/C=C/C=C(C)/C=C/C=C(C)/C=C/C2=C(C)C(=O)C(O)CC2(C)C)C(C)(C)CC(O)C1=O (stereo not drawn) [astaxanthin, 3,3′-dihydroxy-β,β-carotene-4,4′-dione]	–	about 5%	no more than 600 ng/ml	clearly less	about 11.7 times	5.9	reduced	around 200 ng/ml	about 6 days	47.6

From US20210052516A1, “METHOD FOR INCREASING AKKERMANSIA IN INTESTINAL BACTERIAL FLORA BY INGESTING ASTAXANTHIN” (Fuji Chemical Industries Co., Ltd., priority 2018, published 2021)
